Source: ChEMBL document CHEMBL1127916, “Synthesis and biological character of 1-hydroxylated vitamin D3 Analogues” (1994)

Legend:
[1] = target: T1, Vitamin D-binding protein (Rattus norvegicus) (UniProt P04276); test: Relative binding potency for rat vitamin D binding protein (DBP) by competitive displacement with [3H]1-alpha,25(OH)2D3
T1 sequence (whole entry): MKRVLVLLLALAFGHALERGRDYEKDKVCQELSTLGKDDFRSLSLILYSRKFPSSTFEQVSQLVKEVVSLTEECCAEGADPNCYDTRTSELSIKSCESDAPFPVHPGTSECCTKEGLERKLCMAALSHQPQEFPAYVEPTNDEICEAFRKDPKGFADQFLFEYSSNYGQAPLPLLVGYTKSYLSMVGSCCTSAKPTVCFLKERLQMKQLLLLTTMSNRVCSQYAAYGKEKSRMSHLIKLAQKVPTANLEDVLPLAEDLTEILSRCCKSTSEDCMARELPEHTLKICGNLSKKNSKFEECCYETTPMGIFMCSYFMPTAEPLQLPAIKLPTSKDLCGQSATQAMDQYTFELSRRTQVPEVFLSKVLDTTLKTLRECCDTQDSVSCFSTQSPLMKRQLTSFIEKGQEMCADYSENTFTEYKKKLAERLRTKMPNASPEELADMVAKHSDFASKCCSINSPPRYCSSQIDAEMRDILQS

[2] = tested on: HL-60; test: Antiproliferative activity in human promyeloid leukemia cells (HL-60); type: functional
[3] = target: T2, Vitamin D3 receptor (Bos taurus) (UniProt Q28037); test: Relative binding for bovine thymus vitamin D receptor (VDR) by displacement with [3H]1-alpha,25(OH)2D3
T2 sequence (whole entry): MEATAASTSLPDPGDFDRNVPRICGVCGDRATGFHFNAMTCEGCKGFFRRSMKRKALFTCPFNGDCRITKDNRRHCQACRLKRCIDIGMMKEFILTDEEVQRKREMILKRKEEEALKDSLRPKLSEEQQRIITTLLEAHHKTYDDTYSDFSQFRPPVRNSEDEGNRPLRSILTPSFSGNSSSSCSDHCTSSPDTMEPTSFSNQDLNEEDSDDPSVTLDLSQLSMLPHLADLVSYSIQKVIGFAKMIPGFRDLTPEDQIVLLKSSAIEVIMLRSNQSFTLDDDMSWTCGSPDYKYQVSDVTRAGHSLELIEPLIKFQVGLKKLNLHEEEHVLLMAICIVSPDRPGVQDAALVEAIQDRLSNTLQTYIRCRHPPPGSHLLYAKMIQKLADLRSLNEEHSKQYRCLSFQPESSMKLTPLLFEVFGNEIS

Compound | Relative binding potency [1] | Relative binding potency [3] | Relative potency [2]
C=C1/C(=C\C=C2/CCC[C@@]3(C)C2CC[C@@H]3[C@H](C)OCCC(C)(C)O)C[C@@H](O)C[C@H]1O (stereo partly specified) | 0.007 | 0.007 | 0.003
C=C1/C(=C\C=C2/CCC[C@@]3(C)C2CC[C@@H]3[C@H](C)CCCC(C)(C)O)C[C@@H](O)[C@@H](OCCCO)[C@@H]1O (stereo partly specified) | 4.1 | 0.7 | –
C=C1/C(=C\C=C2/CCC[C@@]3(C)C2CC[C@@H]3[C@H](C)CCCC(C)(C)O)C[C@@H](O)[C@@H](OCCCO)[C@H]1O (stereo partly specified) | 6.7 | 0.003 | –

Now from value to compound, other results behind:

Relative binding potency [1] | Relative binding potency [3] | Compound | Relative potency [2]
0.002 | 0.6 | C=C1/C(=C\C=C2/CCC[C@]3(C)[C@@H]([C@H](C)OCCC(C)(C)O)CC[C@@H]23)C[C@@H](O)C[C@@H]1O [MAXACALCITOL] | 3.1
2.9 | 0.2 | C=C1/C(=C\C=C2/CCC[C@@]3(C)C2CC[C@@H]3[C@H](C)CCCC(C)(C)O)C[C@@H](O)C[C@H]1O (stereo partly specified) | 0.2
1 | 1 | C=C1/C(=C\C=C2/CCC[C@]3(C)[C@@H]([C@H](C)CCCC(C)(C)O)CC[C@@H]23)C[C@@H](O)C[C@@H]1O [CALCITRIOL] | 1
